Measurements as given in PMC4263960 (Pediatric blood & cancer, 2013).

Columns and labels:
[1] = system: Rh30 ALV rhabdomyosarcoma xenograft; test: PPTP in vivo xenograft testing, Rh30; parameters: species or system mice
[2] = system: Rh18 EMB rhabdomyosarcoma xenograft; test: PPTP in vivo xenograft testing, Rh18; parameters: species or system mice
[3] = system: D456 glioblastoma xenograft; test: PPTP in vivo xenograft testing, D456; parameters: species or system mice
[4] = system: NB-SD neuroblastoma xenograft; test: PPTP in vivo xenograft testing, NB-SD; parameters: species or system mice
[5] = system: NB-1771 neuroblastoma xenograft; test: PPTP in vivo xenograft testing, NB-1771; parameters: species or system mice
[6] = system: OS-2 osteosarcoma xenograft; test: PPTP in vivo xenograft testing, OS-2; parameters: species or system mice
[7] = system: OS-17 osteosarcoma xenograft; test: PPTP in vivo xenograft testing, OS-17; parameters: species or system mice
[8] = system: ALL-4 ALL B-precursor xenograft; test: PPTP in vivo xenograft testing, ALL-4; parameters: species or system mice
[9] = system: ALL-7 ALL B-precursor xenograft; test: PPTP in vivo xenograft testing, ALL-7; parameters: species or system mice
[10] = system: ALL-8 ALL T-cell xenograft; test: PPTP in vivo xenograft testing, ALL-8; parameters: species or system mice
[11] = system: MLL-7 tertiary infant precursor B-ALL xenograft; test: PPTP in vivo xenograft testing, MLL-7; parameters: species or system mice
[12] = intravenous dose of 2 mg/kg; different mouse strain; cited from earlier work
[13] = 1 mg/kg IP Q4Dx3 repeated at Day 21
[14] = 1.5 mg/kg IP Q4Dx3 repeated at Day 21

SMILES: C=C1C[C@@H]2CC[C@@]34C[C@H]5O[C@H]6[C@@H](O3)[C@H]3O[C@H](CC[C@@H]3O[C@H]6[C@H]5O4)CC(=O)C[C@@H]3[C@@H](OC)[C@@H](C[C@H](O)CN)O[C@H]3C[C@H]3O[C@@H](CC[C@@H]1O2)C[C@@H](C)C3=C [Eribulin]
- Median final RTV (CD45%) [1, 13]: 0.0
- Tumor volume T/C ([1]; 1 mg/kg IP, Day 21 or earlier): 0.06
- EFS activity ([2]; 1 mg/kg IP): Int (Intermediate activity = criteria (a) and (b) above, but not having a net reduction in median tumor volume for treated animals at the end of the study)
- Response activity ([2]; 1 mg/kg IP): Int (intermediate activity by a score of ≥2 but <6)
- T/C volume activity ([2]; 1 mg/kg IP): Low (Low activity = T/C >0.45)
- EFS T/C [2, 13]: >3.2
- Median final RTV (CD45%) [2, 13]: 1.8
- Tumor volume T/C ([2]; 1 mg/kg IP, Day 21 or earlier): 0.76
- EFS activity ([3]; 1 mg/kg IP): Int (Intermediate activity = criteria (a) and (b) above, but not having a net reduction in median tumor volume for treated animals at the end of the study)
- Response activity ([3]; 1 mg/kg IP): Int (intermediate activity by a score of ≥2 but <6)
- T/C volume activity ([3]; 1 mg/kg IP): Low (Low activity = T/C >0.45)
- EFS T/C [3, 13]: 3.4
- Median final RTV (CD45%) [3, 13]: >4
- Time to event [3, 13]: 19.8
- Tumor volume T/C ([3]; 1 mg/kg IP, Day 21 or earlier): 1.00
- EFS activity ([4]; 1 mg/kg IP): Int (Intermediate activity = criteria (a) and (b) above, but not having a net reduction in median tumor volume for treated animals at the end of the study)
- Response activity ([4]; 1 mg/kg IP): Int (intermediate activity by a score of ≥2 but <6)
- T/C volume activity ([4]; 1 mg/kg IP): Low (Low activity = T/C >0.45)
- EFS T/C [4, 13]: 2.4
- Median final RTV (CD45%) [4, 13]: >4
- Time to event [4, 13]: 17.5
- Tumor volume T/C ([4]; 1 mg/kg IP, Day 21 or earlier): 0.53
- EFS activity ([5]; 1 mg/kg IP): Low (Low activity = EFS T/C <2)
- Response activity ([5]; 1 mg/kg IP): Int (intermediate activity by a score of ≥2 but <6)
- T/C volume activity ([5]; 1 mg/kg IP): Low (Low activity = T/C >0.45)
- EFS T/C [5, 13]: 2.0
- Median final RTV (CD45%) [5, 13]: >4
- Time to event [5, 13]: 14.8
- Tumor volume T/C ([5]; 1 mg/kg IP, Day 21 or earlier): 0.56
- EFS activity ([6]; 1 mg/kg IP): High (High activity requires: (a) an EFS T/C >2; (b) a significant difference in EFS distributions, and (c) a net reduction in median tumor volume for animals in the treated group at the end of treatment as compared to at treatment initiation)
- Response activity ([6]; 1 mg/kg IP): Int (intermediate activity by a score of ≥2 but <6)
- T/C volume activity ([6]; 1 mg/kg IP): Int (Intermediate activity = T/C ≤0.45 but >0.15)
- EFS T/C [6, 13]: >2.5
- Median final RTV (CD45%) [6, 13]: 0.8
- Tumor volume T/C ([6]; 1 mg/kg IP, Day 21 or earlier): 0.21
- EFS activity ([7]; 1 mg/kg IP): High (High activity requires: (a) an EFS T/C >2; (b) a significant difference in EFS distributions, and (c) a net reduction in median tumor volume for animals in the treated group at the end of treatment as compared to at treatment initiation)
- Response activity ([7]; 1 mg/kg IP): High (A high level of activity is indicated by a score of 6 or more)
- T/C volume activity ([7]; 1 mg/kg IP): Int (Intermediate activity = T/C ≤0.45 but >0.15)
- EFS T/C [7, 13]: >2.3
- Median final RTV (CD45%) [7, 13]: 0.5
- Tumor volume T/C ([7]; 1 mg/kg IP, Day 21 or earlier): 0.25
- EFS activity ([8]; 1.5 mg/kg IP): High (High activity requires: (a) an EFS T/C >2; (b) a significant difference in EFS distributions, and (c) a net reduction in median tumor volume for animals in the treated group at the end of treatment as compared to at treatment initiation)
- Response activity ([8]; 1.5 mg/kg IP): High (A high level of activity is indicated by a score of 6 or more)
- EFS T/C [8, 14]: >4.3
- Median final RTV (CD45%) ([8]; CD45%, 1.5 mg/kg IP): 0.0%
- EFS activity ([9]; 1.5 mg/kg IP): Int (Intermediate activity = criteria (a) and (b) above, but not having a net reduction in median tumor volume for treated animals at the end of the study)
- Response activity ([9]; 1.5 mg/kg IP): High (A high level of activity is indicated by a score of 6 or more)
- EFS T/C [9, 14]: >4.4
- Median final RTV (CD45%) ([9]; CD45%, 1.5 mg/kg IP): 3.0%
- EFS activity ([10]; 1.5 mg/kg IP): High (High activity requires: (a) an EFS T/C >2; (b) a significant difference in EFS distributions, and (c) a net reduction in median tumor volume for animals in the treated group at the end of treatment as compared to at treatment initiation)
- Response activity ([10]; 1.5 mg/kg IP): High (A high level of activity is indicated by a score of 6 or more)
- EFS T/C [10, 14]: >7.9
- Median final RTV (CD45%) ([10]; CD45%, 1.5 mg/kg IP): 0.0%
- EFS activity ([11]; 1.5 mg/kg IP): High (High activity requires: (a) an EFS T/C >2; (b) a significant difference in EFS distributions, and (c) a net reduction in median tumor volume for animals in the treated group at the end of treatment as compared to at treatment initiation)
- Response activity ([11]; 1.5 mg/kg IP): High (A high level of activity is indicated by a score of 6 or more)
- EFS T/C [11, 14]: >4.7
- Median final RTV (CD45%) ([11]; CD45%, 1.5 mg/kg IP): 0.0%
- AUC [12]: 1,132 ng hour/ml
